# According to ChEMBL document CHEMBL4834464, “Fragment-based Scaffold Hopping: Identification of Potent, Selective, and Highly Soluble Bromo and Extra Terminal Domain (BET) Second Bromodomain (BD2) Inhibitors” (J Med Chem, 2021):
# Key:
# [1] = Intrinsic clearance in Wistar han rat hepatocytes measured per gram of tissue incubated for 60 mins by LC-MS/MS method; type: ADME, cell-based, Hepatocyte; details: 1 h
# [2] = Intrinsic clearance in dog hepatocytes measured per gram of tissue by LC-MS/MS method; type: ADME, cell-based, Canis lupus familiaris, Hepatocyte
# [3] = Half life in Beagle dog at 0.5 mg/kg, iv and 1 mg/kg, po measured up to 7 hrs by LC-MS/MS analysis; type: ADME, organism-based, Canis lupus familiaris; details: in vivo
# [4] = Distribution coefficient, logD of the compound by chromatography; type: physicochemical; details: octanol/water
# [5] = Permeability of compound by AMP assay; type: ADME; details: not told; read-out: permeability
# [6] = Blood clearance in male Wistar Han rat at 0.5 mg/kg, iv and 3 mg/kg, po measured up to 7 hrs by LC-MS/MS analysis; type: ADME, organism-based
# [7] = Oral bioavailability in male Wistar Han rat at 3 mg/kg measured up to 7 hrs by LC-MS/MS analysis; type: ADME, organism-based; details: in vivo
# [8] = Intrinsic clearance in human hepatocytes measured per gram of tissue incubated for 120 mins by LC-MS/MS method; type: ADME, cell-based, Hepatocyte; details: 2 h
# [9] = Solubility of the compound by CLND assay; type: physicochemical
# [10] = Oral bioavailability in Beagle dog at 1 mg/kg measured up to 7 hrs by LC-MS/MS analysis; type: ADME, organism-based, Canis lupus familiaris; details: in vivo
# [11] = Half life in male Wistar Han rat at 0.5 mg/kg, iv and 3 mg/kg, po measured up to 7 hrs by LC-MS/MS analysis; type: ADME, organism-based; details: in vivo
# [12] = Volume of distribution at steady state in Beagle dog at 0.5 mg/kg, iv and 1 mg/kg, po measured up to 7 hrs by LC-MS/MS analysis; type: ADME, organism-based, Canis lupus familiaris; details: in vivo, read-out: Vdss
# [13] = Apparent permeability across apical to basolateral side in MDCK cells; type: ADME, cell-based, Canis lupus familiaris; details: dog
# [14] = Blood clearance in Beagle dog at 0.5 mg/kg, iv and 1 mg/kg, po measured up to 7 hrs by LC-MS/MS analysis; type: ADME, organism-based, Canis lupus familiaris
# [15] = Volume of distribution at steady state in male Wistar Han rat at 0.5 mg/kg, iv and 3 mg/kg, po measured up to 7 hrs by LC-MS/MS analysis; type: ADME, organism-based; details: in vivo, read-out: Vdss
# [16] = Solubility of the compound in FaSSIF at pH 6.5 incubated for 16 hrs by HPLC gradient analysis; type: physicochemical; details: for solubility: simulated gi fluid, pH 6.5, 16 h; for solubility at 16 h: FaSSIF, pH 6.5
# [17] = Blood clearance in male Wistar Han rat at 1 mg/kg, iv and 3 mg/kg, po measured up to 7 hrs by LC-MS/MS analysis; type: ADME, organism-based
# [18] = Half life in male Wistar Han rat at 1 mg/kg, iv and 3 mg/kg, po measured up to 7 hrs by LC-MS/MS analysis; type: ADME, organism-based; details: in vivo
# [19] = Kinetic solubility of compound […] using the charged aerosol detector (CAD) analysis; type: physicochemical; details: read-out: Kinetic_solubility
# [20] = Half life in Beagle dog at 0.5 mg/kg, iv and 0.7 mg/kg, po measured up to 7 hrs by LC-MS/MS analysis; type: ADME, organism-based, Canis lupus familiaris; details: in vivo
# [21] = Volume of distribution at steady state in Beagle dog at 0.5 mg/kg, iv and 0.7 mg/kg, po measured up to 7 hrs by LC-MS/MS analysis; type: ADME, organism-based, Canis lupus familiaris; details: in vivo, read-out: Vdss
# [22] = Blood clearance in Beagle dog at 0.5 mg/kg, iv and 0.7 mg/kg, po measured up to 7 hrs by LC-MS/MS analysis; type: ADME, organism-based, Canis lupus familiaris
# [23] = Volume of distribution at steady state in male Wistar Han rat at 1 mg/kg, iv and 3 mg/kg, po measured up to 7 hrs by LC-MS/MS analysis; type: ADME, organism-based; details: in vivo, read-out: Vdss
# [24] = Oral bioavailability in Beagle dog at 0.7 mg/kg measured up to 7 hrs by LC-MS/MS analysis; type: ADME, organism-based, Canis lupus familiaris; details: in vivo
# [25] = Oral bioavailability in male Wistar Han rat measured up to 7 hrs by LC-MS/MS analysis; type: ADME, organism-based; details: in vivo
# [26] = Blood clearance in male Wistar Han rat measured up to 7 hrs by LC-MS/MS analysis; type: ADME
# [27] = Solubility of the compound in FaSSIF at pH 6.5 using crystalline form of sample incubated for 16 hrs by HPLC gradient analysis; type: physicochemical
Structure (SMILES),CLint [1],CLint [2],half-life [3],chromatographic logD [4],Papp [5],bioavailability [7],CLint [8],solubility kinetic [9],bioavailability [10],Vd [12],clearance [14],clearance [17],half-life [18],Vd [23],clearance [26],further results
CNC(=O)c1cc(C(=O)N[C@H]2CC[C@H](O)CC2)n([C@@H](C)c2ccccc2)n1,0.9 mL/min/g,< 0.7 mL/min/g,540 min,2.9,8 ×10⁻⁶ cm/s,58%,< 0.5 mL/min/g,≥ 180 µg/mL,30%,0.9 L/kg,1 mL/min/kg,,,,,clearance [6]: 13 mL/min/kg; half-life [11]: 78 min; Papp A→B [13]: 4.1 ×10⁻⁶ cm/s; Vd [15]: 1.1 L/kg; solubility [16]: 366 µg/mL
CNC(=O)c1cc(C(=O)N[C@H]2[C@@H]3C[C@@H](O)C[C@@H]32)n([C@@H](C)c2cccc(Cl)c2)n1,1 mL/min/g,< 0.65 mL/min/g,,3.4,19.7 ×10⁻⁶ cm/s,57%,< 0.45 mL/min/g,,,,,21 mL/min/kg,174 min,2.6 L/kg,,solubility kinetic [19]: 175 µg/mL; half-life [20]: 300 min; Vd [21]: 0.8 L/kg; clearance [22]: 2 mL/min/kg; bioavailability [24]: 58%
CNC(=O)c1cc(C(=O)NC2CC2)cn(Cc2cccc3[nH]ccc23)c1=O,,,,,,,2.9 mL/min/g,,,,,,,,128 mL/min/kg,solubility at 16 h [16]: 17 µg/mL
CNC(=O)c1cc(C(=O)N[C@H]2CC[C@H](OC)CC2)n([C@@H](C)c2ccccc2)n1,1.7 mL/min/g,< 0.65 mL/min/g,246 min,4.2,36 ×10⁻⁶ cm/s,80%,< 0.45 mL/min/g,≥ 161 µg/mL,95%,2.1 L/kg,6 mL/min/kg,32 mL/min/kg,60 min,2.4 L/kg,,solubility thermodynamic at 16 h [27]: 355 µg/mL
CNC(=O)c1cc(C(=O)N[C@H]2CC[C@H](O)CC2)c([C@@H](C)c2ccccc2)o1,0.8 mL/min/g,< 0.7 mL/min/g,312 min,2.8,4.2 ×10⁻⁶ cm/s,72%,< 0.5 mL/min/g,≥ 184 µg/mL,84%,0.8 L/kg,1.9 mL/min/kg,30 mL/min/kg,78 min,2.1 L/kg,,Papp A→B [13]: 4.9 ×10⁻⁶ cm/s; solubility [16]: 827 µg/mL
CNC(=O)c1cc(C(=O)NC2CC2)cn(Cc2ccccc2)c1=O [GSK620],,,,,,,3.1 mL/min/g,,,,,,,,75 mL/min/kg,solubility at 16 h [16]: 13 µg/mL

# Continued, in another order:
CLint [1],CLint [2],half-life [3],chromatographic logD [4],Papp [5],bioavailability [7],CLint [8],solubility kinetic [9],bioavailability [10],Vd [12],clearance [14],clearance [17],half-life [18],Vd [23],Structure (SMILES),clearance [26],further results
,,,2.8,,,2.8 mL/min/g,,,,,,,,CC(=O)Nc1c(F)cc(C(=O)N[C@H]2CC[C@H](O)CC2)cc1O[C@@H](C)c1ccccc1 [GSK046],82 mL/min/kg,solubility kinetic [19]: ≥ 159 µg/mL; bioavailability [25]: 31%
,,,3.6,16.5 ×10⁻⁶ cm/s,,3.6 mL/min/g,,,,,,,,CNC(=O)c1cc(C(=O)N[C@H]2[C@@H]3COC[C@@H]32)cc2c1O[C@H](CF)[C@H]2c1ccccc1 [GSK973],180 mL/min/kg,bioavailability [25]: 48%
